Among the test systems are SF-268; NCI-H226; SF-539; 786-0; OVCAR-5; HOP-62; BT-549; SN12C; K562; OVCAR-3; UACC-257; SK-MEL-2; SK-MEL-5; OVCAR-8; OVCAR-4; HL-60; Hs-578T; RXF 393; HOP-92.
Common to all, as to experiment: NCI tumour cell line growth inhibition, 48 h

SMILES strings stand for the structures.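 Cells were grown in 96-well plates and exposed to each compound for 48 hours at five concentrations; endpoints were interpolated linearly between bracketing concentrations, or set to the highest concentration if not reached. GI50 is the concentration that inhibits growth by half.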 Active and inactive are the calls of the source. Cut-off read from the data, not from the text of the source: active = GI50 up to about 1.1 µM and inactive = higher. Where a SMILES comes first, the peptide text is derived from it. [ ]: non-standard residue; d: D form. The star is where a group is joined. Phe(4-NO2) = N[CH](Cc1ccc([N+](=O)[O-])cc1)C(=O)O; Cbz = O=C(OCc1ccccc1)*

As for `Cc1cc(S(=O)(=O)/N=C2\NCCN2Cc2ccccc2)c(S)cc1Cl`, the GI50 in the test on SF-268 was 88.3 µM (inactive); in the test on NCI-H226, 61.2 µM (inactive); in the test on SF-539 it was > 100 µM (inactive); with 786-0, > 100 µM (inactive); in the test with OVCAR-5, > 100 µM (inactive); in the test on HOP-62 it was 76.2 µM (inactive). Also, the GI50 with BT-549, in the test on SN12C, in the test on K562, in the test on OVCAR-3, in the test with UACC-257 and with SK-MEL-2 was > 100 µM (inactive) throughout. Moreover, the GI50 in the test on SK-MEL-5, with OVCAR-8, in the test on OVCAR-4 and in the test with HL-60 was > 100 µM (inactive) in each case.
For the compound `[N-]=[N+]=Nc1c(Cc2ccccc2)c(=O)oc2ccccc12`, the GI50 in the test on SF-268 is 25.9 µM (inactive); in the test on Hs-578T, 19.1 µM (inactive); with SF-539, > 10 µM (inactive); in the test with 786-0 it was 40.6 µM (inactive); in the test with OVCAR-5, 61.9 µM (inactive); with HOP-62, 20.7 µM (inactive). For the same compound, the GI50 in the test on BT-549 was 24.5 µM (inactive); in the test with SN12C, > 10 µM (inactive); with K562 it was 18.6 µM (inactive); with OVCAR-3, 49.5 µM (inactive); in the test with RXF 393, 16.7 µM (inactive); in the test on UACC-257 it was 45.8 µM (inactive). Besides, the GI50 in the test with SK-MEL-2 was 28.1 µM (inactive); in the test on SK-MEL-5 it was 2.67 µM (inactive); in the test on OVCAR-4, 32.4 µM (inactive); in the test on HL-60 it was 90.8 µM (inactive).
Regarding `Cc1nc(SCC(N)=O)c2sc(=S)n(-c3ccccc3)c2n1`, the GI50 in the test on SF-268, in the test with Hs-578T, in the test with NCI-H226, in the test with SF-539, in the test with 786-0 and with OVCAR-5 was > 10 µM (inactive) each time. The GI50 in the test on HOP-62, in the test with SN12C, in the test on HOP-92, in the test on K562, with OVCAR-3 and in the test on RXF 393 was > 10 µM (inactive) throughout. For the same compound, the GI50 with UACC-257, in the test on SK-MEL-2, in the test with SK-MEL-5, in the test with OVCAR-8, in the test with OVCAR-4 and in the test on HL-60 was > 10 µM (inactive) each time.
Regarding `CCN(CCCN(CC)C(=O)Nc1ccccc1)C(=O)Nc1ccccc1`, the GI50 in the test with NCI-H226, in the test on SF-539, with 786-0, with OVCAR-5, in the test with HOP-62 and in the test on BT-549 was > 100 µM (inactive) in each case. Moreover, the GI50 with SN12C, in the test with HOP-92, in the test on K562, in the test on OVCAR-3, in the test with RXF 393 and in the test on UACC-257 was > 100 µM (inactive) in each case. Moreover, the GI50 in the test with SK-MEL-2, in the test with SK-MEL-5, in the test on OVCAR-8, with OVCAR-4 and in the test with HL-60 was > 100 µM (inactive) in each case.
`CN(C)C1(N(C)C)Oc2c(c(=O)n(C)c(=O)n2C)C(c2ccccc2)C1(F)F` (centres undefined): the GI50 in the test with SF-268, with NCI-H226, with 786-0, in the test on OVCAR-5, in the test with HOP-62 and in the test with BT-549 was > 100 µM (inactive) throughout. The GI50 in the test with HOP-92, with K562, in the test with OVCAR-3, with RXF 393, with UACC-257 and with SK-MEL-2 was > 100 µM (inactive) throughout. The GI50 in the test with SK-MEL-5 and in the test on OVCAR-4 was > 100 µM (inactive) in each case.
As for `COc1cc(/C=N/n2c(C)n[nH]c2=O)cc(OC)c1OC`, the GI50 is > 100 µM (inactive) in the test with SF-268; 0.583 µM (active) in the test with Hs-578T; > 100 µM (inactive) with NCI-H226; > 100 µM (inactive) in the test with SF-539; > 100 µM (inactive) in the test with 786-0; 80.5 µM (inactive) in the test with OVCAR-5. Further, the GI50 in the test with HOP-62 was > 100 µM (inactive); in the test on BT-549 it was 78 µM (inactive); in the test on SN12C, > 100 µM (inactive); in the test on K562 it was > 100 µM (inactive); with OVCAR-3, 51.4 µM (inactive); with RXF 393 it was 27.4 µM (inactive). Also, the GI50 in the test on UACC-257, with SK-MEL-2, with OVCAR-8 and in the test with OVCAR-4 was > 100 µM (inactive) throughout.
For the compound `Cc1cc(O)cc(O)c1C(=O)O[C@]1(C)C(=O)C=C2C=C(/C=C/C(=O)O)OC=C2C1=O`, the GI50 with SF-268, with Hs-578T, in the test with NCI-H226, in the test with SF-539, in the test with 786-0 and in the test on OVCAR-5 was > 100 µM (inactive) each time. For the same compound, the GI50 is > 100 µM (inactive) in the test with HOP-62; > 100 µM (inactive) with SN12C; 31.8 µM (inactive) in the test with HOP-92; > 100 µM (inactive) in the test on K562; > 100 µM (inactive) with OVCAR-3; > 100 µM (inactive) in the test on RXF 393. For the same compound, the GI50 with UACC-257 is > 100 µM (inactive); with SK-MEL-2, > 100 µM (inactive); in the test with SK-MEL-5, > 100 µM (inactive); with OVCAR-8 it was > 100 µM (inactive); with OVCAR-4, > 100 µM (inactive); with HL-60 it was 31.9 µM (inactive).
Regarding `N/C(=N\O)N/N=C/c1ccc2c(c1)OCO2`, the GI50 with SF-268 was 13.9 µM (inactive); with Hs-578T, > 100 µM (inactive); in the test on NCI-H226, 10.8 µM (inactive); with SF-539, 27.7 µM (inactive); in the test on 786-0, 12.9 µM (inactive); in the test on OVCAR-5, 24.7 µM (inactive). Further, the GI50 with HOP-62 is 26.6 µM (inactive); in the test with SN12C, 34.4 µM (inactive); with HOP-92, 20.8 µM (inactive); in the test on K562, 18.5 µM (inactive); in the test on OVCAR-3 it was 14.2 µM (inactive); in the test on RXF 393, 29 µM (inactive). In addition, the GI50 in the test on UACC-257 was 39.5 µM (inactive); with SK-MEL-2 it was 22 µM (inactive); in the test with SK-MEL-5, 15.4 µM (inactive); in the test with OVCAR-8, 12.5 µM (inactive); in the test on OVCAR-4 it was 26.4 µM (inactive); in the test with HL-60, 18.2 µM (inactive).
`COc1ccc(OC)c2c(=O)cc(-c3ccccc3)[nH]c12`: the GI50 with SF-268, in the test on Hs-578T, in the test on NCI-H226, with 786-0, in the test with OVCAR-5 and in the test with HOP-62 was > 100 µM (inactive) throughout. Besides, the GI50 in the test with BT-549, in the test on SN12C, with K562, in the test with OVCAR-3, in the test with RXF 393 and in the test on UACC-257 was > 100 µM (inactive) throughout. In addition, the GI50 is > 100 µM (inactive) in the test on SK-MEL-2; > 10 µM (inactive) with SK-MEL-5; > 100 µM (inactive) with OVCAR-8; > 100 µM (inactive) in the test with OVCAR-4; > 100 µM (inactive) with HL-60.
In the case of `Oc1c2cc(Cl)cc1COCc1cc(Cl)cc(c1O)COCc1cc(Cl)cc(c1O)COC2`, the GI50 with NCI-H226 was 30.5 µM (inactive); in the test on 786-0 it was 9.42 µM (inactive); with OVCAR-5, 40.3 µM (inactive); in the test with HOP-62, 19.7 µM (inactive); with BT-549 it was 31.3 µM (inactive); in the test on HOP-92 it was 6.9 µM (inactive). Moreover, the GI50 with K562 is 67.5 µM (inactive); in the test with OVCAR-3, 47.2 µM (inactive); in the test with RXF 393 it was 18.3 µM (inactive); in the test on UACC-257, > 100 µM (inactive); in the test with SK-MEL-2, > 100 µM (inactive); in the test with SK-MEL-5 it was > 100 µM (inactive). Also, the GI50 is 11.8 µM (inactive) in the test on OVCAR-8, 23 µM (inactive) in the test with OVCAR-4 and 2.88 µM (inactive) in the test on HL-60.
On to `Cc1ccc(C2SCC(=O)N2NC(=O)c2ccncc2)s1` (centres undefined), for which the GI50 in the test on SF-268, in the test with NCI-H226, with SF-539, with 786-0, in the test on OVCAR-5 and with HOP-62 was > 100 µM (inactive) throughout. Also, the GI50 with BT-549, in the test with SN12C, with HOP-92, with K562, in the test on OVCAR-3 and with RXF 393 was > 100 µM (inactive) throughout. Moreover, the GI50 in the test with UACC-257, in the test with SK-MEL-2, in the test on SK-MEL-5, with OVCAR-8 and with OVCAR-4 was > 100 µM (inactive) in each case.
Turning to `CCOC(=O)CCC(NC(=O)OCc1ccccc1)C(=O)NC(CCC(=O)OCC)C(=O)NC(Cc1ccc([N+](=O)[O-])cc1)C(=O)NC(CCC(=O)OCC)C(=O)NC(CCC(=O)OCC)C(=O)OCC` (centres undefined) (Cbz-E(OEt)E(OEt)[Phe(4-NO2)]E(OEt)E(OEt)-OEt; configuration not given here), the GI50 with Hs-578T, in the test with 786-0, in the test on OVCAR-5, with HOP-62, in the test with BT-549 and in the test on SN12C was > 100 µM (inactive) each time. Moreover, the GI50 in the test on RXF 393, in the test with UACC-257, in the test on SK-MEL-2, with SK-MEL-5, in the test with OVCAR-8 and in the test on OVCAR-4 was > 100 µM (inactive) in each case.

Source of the values: ChEMBL document CHEMBL1201862, “PubChem BioAssay data set” (2004).
